{
  "source": "BindingDB's records for doi:10.1111/cbdd.12458",
  "about": "(Pontificia Universidad Catolica De Chile, 2015)",
  "key": {"[1]": {"target": "T1, Amine oxidase [flavin-containing] B (Rattus norvegicus, UniProt P19643)", "T1 sequence (P19643 whole entry)": "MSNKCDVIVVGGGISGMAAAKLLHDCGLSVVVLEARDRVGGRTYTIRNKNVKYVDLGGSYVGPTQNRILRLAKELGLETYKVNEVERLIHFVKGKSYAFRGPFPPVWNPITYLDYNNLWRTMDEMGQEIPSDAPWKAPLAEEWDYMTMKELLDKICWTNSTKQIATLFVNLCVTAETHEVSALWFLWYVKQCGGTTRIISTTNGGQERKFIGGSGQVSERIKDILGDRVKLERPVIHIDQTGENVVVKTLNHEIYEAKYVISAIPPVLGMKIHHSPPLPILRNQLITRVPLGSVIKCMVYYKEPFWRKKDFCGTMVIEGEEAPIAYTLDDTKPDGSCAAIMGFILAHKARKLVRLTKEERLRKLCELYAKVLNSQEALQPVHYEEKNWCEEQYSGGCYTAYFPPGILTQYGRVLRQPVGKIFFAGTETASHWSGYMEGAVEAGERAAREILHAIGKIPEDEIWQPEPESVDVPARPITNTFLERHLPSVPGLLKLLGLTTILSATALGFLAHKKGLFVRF", "experiment": "Monoamine Oxidase Inhibition Assay", "method": "(§1) Briefly, a crude rat brain mitochondrial suspension (male Sprague Dawley rats weighing 180 220 g, killed by decapitation) was used as protein source. Serotonin(5-HT, 100 µM) and 4-dimethylaminophenethylamine (DMAPEA, 5 µM) were used as selective substrates for MAO-A and MAO-B, respectively. The reaction mixtures were analyzed with a Merck-Hitachi HPLC (Tokyo, Japan), employing a C18 reverse phase column (Lichrospher 250 9 4.6 mm, 5 µm) and an amperometric detector (Merck Recipe L3500A). Tetrahydrofuran and acetonitrile (Merck) were used as eluents."}, "[2]": {"target": "T2, Amine oxidase [flavin-containing] A (Rattus norvegicus, UniProt P21396)", "T2 sequence (P21396 whole entry)": "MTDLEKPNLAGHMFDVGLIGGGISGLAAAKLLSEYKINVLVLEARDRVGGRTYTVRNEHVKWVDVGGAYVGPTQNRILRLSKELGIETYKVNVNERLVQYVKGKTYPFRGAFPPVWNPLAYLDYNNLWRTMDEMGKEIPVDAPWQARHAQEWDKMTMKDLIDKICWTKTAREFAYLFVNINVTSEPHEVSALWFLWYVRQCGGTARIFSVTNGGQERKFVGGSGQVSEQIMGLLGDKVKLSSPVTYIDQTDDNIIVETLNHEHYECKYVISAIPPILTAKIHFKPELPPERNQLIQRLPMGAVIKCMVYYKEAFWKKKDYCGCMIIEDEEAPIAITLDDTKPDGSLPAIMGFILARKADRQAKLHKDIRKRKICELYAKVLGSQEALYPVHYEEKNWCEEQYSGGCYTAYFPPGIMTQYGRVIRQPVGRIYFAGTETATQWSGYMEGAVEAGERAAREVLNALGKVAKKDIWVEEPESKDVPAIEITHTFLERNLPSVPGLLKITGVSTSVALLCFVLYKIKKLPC", "experiment": "Monoamine Oxidase Inhibition Assay", "method": "as §1"}},
  "data": [
    {"smiles": "COc1ccc(OC)c(/C=C2\\Oc3cccc(OC)c3C2=O)c1", "note": "[(Z)-2-(2,5-Dimethoxybenzylidene)-4-methoxybenzofuran-3(2H)-one (4a)]", "values": [
      {"measurement": "IC50", "setting": "[1]", "result": 17.8, "unit": "µM"},
      {"measurement": "IC50", "setting": "[2]", "result": "> 100", "unit": "µM"}
    ]},
    {"smiles": "COc1ccc(O)c(C(=O)/C=C/c2cccc(OC)c2OC)c1", "note": "[(E)-3-(2,3-Dimethoxyphenyl)-1-(2-hydroxy-5-methoxyphenyl)prop-2-en-1-one (3g)]", "values": [
      {"measurement": "IC50", "setting": "[1]", "result": 6.8, "unit": "µM"},
      {"measurement": "IC50", "setting": "[2]", "result": "> 100", "unit": "µM"}
    ]},
    {"smiles": "COc1ccc(O)c(C(=O)/C=C/c2cc(OC)c(Br)cc2OC)c1", "note": "[(E)-3-(4-Bromo-2,5-dimethoxyphenyl)-1-(2-hydroxy-5-methoxyphenyl)prop-2-en-1-one (3h)]", "values": [
      {"measurement": "IC50", "setting": "[1]", "result": 2.8, "unit": "µM"},
      {"measurement": "IC50", "setting": "[2]", "result": "> 100", "unit": "µM"}
    ]},
    {"smiles": "COc1ccc2c(c1)C(=O)/C(=C/c1cc(OC)c(Br)cc1OC)O2", "note": "[(Z)-2-(4-Bromo-2,5-dimethoxybenzylidene)-5-methoxybenzofuran-3(2H)-one (4h)]", "values": [
      {"measurement": "IC50", "setting": "[1]", "result": 13.5, "unit": "µM"},
      {"measurement": "IC50", "setting": "[2]", "result": "> 100", "unit": "µM"}
    ]},
    {"smiles": "COc1cc(/C=C/C(=O)c2c(O)cccc2OC)c(OC)cc1Br", "note": "[(E)-3-(4-Bromo-2,5-dimethoxyphenyl)-1-(2-hydroxy-6-methoxyphenyl)prop-2-en-1-one (3d)]", "values": [
      {"measurement": "IC50", "setting": "[1]", "result": 6.1, "unit": "µM"},
      {"measurement": "IC50", "setting": "[2]", "result": "> 100", "unit": "µM"}
    ]},
    {"smiles": "COc1ccc(OC)c(/C=C/C(=O)c2c(O)cccc2OC)c1", "note": "[(E)-3-(2,5-Dimethoxyphenyl)-1-(2-hydroxy-6-methoxyphenyl)prop-2-en-1-one (3a)]", "values": [
      {"measurement": "IC50", "setting": "[1]", "result": 10.9, "unit": "µM"},
      {"measurement": "IC50", "setting": "[2]", "result": "> 100", "unit": "µM"}
    ]},
    {"smiles": "COc1ccc2c(c1)C(=O)/C(=C/c1cccc(OC)c1OC)O2", "note": "[(Z)-2-(2,3-Dimethoxybenzylidene)-5-methoxybenzofuran-3(2H)-one (4g)]", "values": [
      {"measurement": "IC50", "setting": "[1]", "result": 11.6, "unit": "µM"},
      {"measurement": "IC50", "setting": "[2]", "result": "> 100", "unit": "µM"}
    ]},
    {"smiles": "COc1cc(/C=C2\\Oc3cccc(OC)c3C2=O)c(OC)cc1Br", "note": "[(Z)-2-(4-Bromo-2,5-dimethoxybenzylidene)-4-methoxybenzofuran-3(2H)-one (4d)]", "values": [
      {"measurement": "IC50", "setting": "[1]", "result": 26.3, "unit": "µM"},
      {"measurement": "IC50", "setting": "[2]", "result": "> 100", "unit": "µM"}
    ]}
  ]
}
